Results: ChEMBL document CHEMBL1201862, “PubChem BioAssay data set” (2004)
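48-hour exposure; five concentrations; linearly interpolated endpoints. Abbreviation: GI50, concentration required for 50% inhibition of growth.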 The source made the active and inactive calls. Cut-off read from the data, not from the text of the source: active = GI50 up to about 1.1 µM and inactive = higher.

What was measured:
Experiment in all cases: growth of human tumour cells (NCI), 48 h
A549 = test system: A549
BT-549 = test system: BT-549
HCT-116 = test system: HCT-116
HCT-15 = test system: HCT-15
HOP-92 = test system: HOP-92
HT-29 = test system: HT-29
K562 = test system: K562
LOX IMVI = test system: LOX IMVI
MDA-MB-231 = test system: MDA-MB-231
NCI-H226 = test system: NCI-H226
NCI-H23 = test system: NCI-H23
NCI-H460 = test system: NCI-H460
NCI-H522 = test system: NCI-H522
SF-539 = test system: SF-539
SK-MEL-5 = test system: SK-MEL-5
SN12C = test system: SN12C
T47D = test system: T47D
UO-31 = test system: UO-31
HCC 2998 = test system: HCC 2998

Compound | GI50 (A549) | GI50 (BT-549) | GI50 (HCT-116) | GI50 (HCT-15) [µM] | GI50 (HOP-92) | GI50 (HT-29) | GI50 (K562) | GI50 (LOX IMVI) | GI50 (MDA-MB-231) | GI50 (NCI-H226) | GI50 (NCI-H23) | GI50 (NCI-H460) | GI50 (NCI-H522) | GI50 (SF-539) | GI50 (SK-MEL-5) | GI50 (SN12C) | GI50 (T47D) | GI50 (UO-31) | GI50 (HCC 2998)
COC(=O)C(Cc1c(C2Nc3ccccc3C2CC(NC(C)=O)C(=O)OC)[nH]c2ccccc12)NC(C)=O (stereo unspecified) | > 100 µM (inactive) | > 100 µM (inactive) | > 100 µM (inactive) | > 100 | > 100 µM (inactive) | > 100 µM (inactive) | > 100 µM (inactive) | > 100 µM (inactive) | > 100 µM (inactive) | > 100 µM (inactive) | > 100 µM (inactive) | > 100 µM (inactive) | > 100 µM (inactive) | > 100 µM (inactive) | > 100 µM (inactive) | > 100 µM (inactive) | > 100 µM (inactive) | > 100 µM (inactive) | –
COc1ccc(C2SCC(=O)N2NC2=NC(=O)CC(=O)N2)cc1 (stereo unspecified) | > 100 µM (inactive) | > 100 µM (inactive) | > 100 µM (inactive) | > 100 | > 100 µM (inactive) | > 100 µM (inactive) | > 100 µM (inactive) | – | > 100 µM (inactive) | > 100 µM (inactive) | > 100 µM (inactive) | > 100 µM (inactive) | > 100 µM (inactive) | > 100 µM (inactive) | > 100 µM (inactive) | > 100 µM (inactive) | > 100 µM (inactive) | > 100 µM (inactive) | > 100 µM (inactive)
COc1cc2nc(-c3cccs3)nc(N3CCN(c4ccccc4)CC3)c2cc1OC | > 100 µM (inactive) | > 100 µM (inactive) | > 100 µM (inactive) | > 100 | > 100 µM (inactive) | > 100 µM (inactive) | > 100 µM (inactive) | > 100 µM (inactive) | > 100 µM (inactive) | > 100 µM (inactive) | > 100 µM (inactive) | > 100 µM (inactive) | > 100 µM (inactive) | > 100 µM (inactive) | > 100 µM (inactive) | > 100 µM (inactive) | > 100 µM (inactive) | > 100 µM (inactive) | –
CCc1ccccc1/N=N/C(=O)NNc1ccccc1CC | 14.9 µM (inactive) | 18.4 µM (inactive) | 15.3 µM (inactive) | 18.5 | – | 24 µM (inactive) | 26.1 µM (inactive) | 18.5 µM (inactive) | 21.3 µM (inactive) | 17.5 µM (inactive) | 19.9 µM (inactive) | 18 µM (inactive) | 19.7 µM (inactive) | – | 15 µM (inactive) | 18.5 µM (inactive) | 6.78 µM (inactive) | 17.3 µM (inactive) | 15.7 µM (inactive)
